Values joined by “and” are separate entries in the source; they are usually repeats but may differ in a detail not shown here. Equal values may be shown once.
System: Swiss mice, Sarcoma 180 sc, mean tumor weight T/C
Experiment: NCI In Vivo Anticancer Drug Screen. Data for tumor model Sarcoma 180 (subcutaneous) in Swiss mice
Conditions: endpoint: mean tumor weight, higher = larger tumour
In short: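 Transplantable tumors were established in mice, compound was given, then survival or tumor size was recorded. The treated value was divided by the vehicle-control value.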

[1] = dose: 0.5 mg/kg/injection, schedule: Q01DX007 (ip), vehicle: carboxymethylcellulose (CMC)
[2] = dose: 2.0 mg/kg/injection, schedule: Q01DX007 (ip), vehicle: carboxymethylcellulose (CMC)
[3] = dose: 1.0 mg/kg/injection, schedule: Q01DX007 (ip), vehicle: carboxymethylcellulose (CMC)
[4] = dose: 8.0 mg/kg/injection, schedule: Q01DX007 (ip), vehicle: carboxymethylcellulose (CMC)
[5] = dose: 5.0 mg/kg/injection, schedule: Q01DX007 (sc), vehicle: steriod suspending solution
[6] = dose: 333.0 mg/kg/injection, schedule: Q01DX007 (ip), vehicle: other
[7] = dose: 500.0 mg/kg/injection, schedule: Q01DX007 (ip), vehicle: other
[8] = dose: 750.0 mg/kg/injection, schedule: Q01DX007 (ip), vehicle: other

In the case of `COC(=O)[C@H]1[C@H]2C[C@@H]3c4[nH]c5cc(OC)ccc5c4CCN3C[C@H]2C[C@@H](OC(=O)c2cc(OC)c(OC)c(OC)c2)[C@@H]1OC`, the T/C (dose: 0.44 mg/kg/injection, schedule: Q01DX007 (ip), vehicle: carboxymethylcellulose (CMC)) is reported as 101 % of control, the T/C [1] is reported as 91 % of control and the T/C (dose: 0.66 mg/kg/injection, schedule: Q01DX007 (ip), vehicle: carboxymethylcellulose (CMC)) is reported as 79 % of control. The T/C [2] was 35 % of control, the T/C (dose: 2.3 mg/kg/injection, schedule: Q01DX007 (ip), vehicle: carboxymethylcellulose (CMC)) was 42 % of control and the T/C (dose: 3.4 mg/kg/injection, schedule: Q01DX007 (ip), vehicle: carboxymethylcellulose (CMC)) was 18 % of control.

In the case of `Nc1ncnc2[nH]ncc12`, the T/C (dose: 0.55 mg/kg/injection, schedule: Q#A X014 (ip), vehicle: carboxymethylcellulose (CMC)) is reported as 74 % of control, the T/C (dose: 1.1 mg/kg/injection, schedule: Q#A X014 (ip), vehicle: carboxymethylcellulose (CMC)) is reported as 79 % of control and the T/C (dose: 2.2 mg/kg/injection, schedule: Q#A X014 (ip), vehicle: carboxymethylcellulose (CMC)) is reported as 76 % of control. The T/C (dose: 4.4 mg/kg/injection, schedule: Q#A X014 (ip), vehicle: carboxymethylcellulose (CMC)) was 87 % of control.

For `CCCCNP(=O)(N1CC1)N1CC1`, the T/C (dose: 0.15 mg/kg/injection, schedule: Q#A X014 (ip), vehicle: saline) was 18 % of control and the T/C (dose: 0.25 mg/kg/injection, schedule: Q#A X014 (ip), vehicle: saline) was 7 % of control.

For `Nc1nc(=S)c2ncn(C3CCCO3)c2[nH]1` (stereo not drawn), the T/C (dose: 20.0 mg/kg/injection, schedule: Q01DX007 (ip), vehicle: carboxymethylcellulose (CMC)) was 43 % of control and 46 % of control, the T/C (dose: 45.0 mg/kg/injection, schedule: Q01DX007 (ip), vehicle: carboxymethylcellulose (CMC)) was 18 % of control and 38 % of control and the T/C (dose: 90.0 mg/kg/injection, schedule: Q01DX007 (ip), vehicle: carboxymethylcellulose (CMC)) was 9 % of control.

For `O=C(O)c1ccc(N=NSc2ncnc3nc[nH]c23)cc1O`, the T/C (dose: 0.2 mg/kg/injection, schedule: Q01DX007 (ip), vehicle: carboxymethylcellulose (CMC)) was 101 % of control, the T/C [1] was 115 % of control and the T/C [3] was 108 % of control. For the same molecule, the T/C [4] was 9 % of control.

`CN(CC#N)/N=N/c1nc[nH]c1C(N)=O` was tested, and the T/C (dose: 225.0 mg/kg/injection, schedule: Q01DX007 (ip), vehicle: carboxymethylcellulose (CMC)) was 38 % of control.

For `Cn1c(=O)c2[nH]cnc2n(C)c1=O`, the T/C (dose: 20.43 mg/kg/injection, schedule: Q01DX007 (ip), vehicle: carboxymethylcellulose (CMC)) was 75 % of control, the T/C (dose: 40.87 mg/kg/injection, schedule: Q01DX007 (ip), vehicle: carboxymethylcellulose (CMC)) was 103 % of control and the T/C (dose: 81.75 mg/kg/injection, schedule: Q01DX007 (ip), vehicle: carboxymethylcellulose (CMC)) was 70 % of control. The T/C (dose: 163.5 mg/kg/injection, schedule: Q01DX007 (ip), vehicle: carboxymethylcellulose (CMC)) was 113 % of control.

In the case of `COc1cccc2c1C(=O)c1c(O)c3c(c(O)c1C2=O)C[C@@](O)(C(C)=O)C[C@@H]3OC1CC(N)C(O)C(C)O1` (stereo partly drawn), the T/C (dose: 1.0 mg/kg/injection, schedule: Q01DX007 (sc), vehicle: steriod suspending solution) is reported as 86 % of control and the T/C [5] is reported as 54 % of control and 42 % of control.

`N#[N+]c1nc2ncnc(N)c2[nH]1` was tested, and the T/C (dose: 6.25 mg/kg/injection, schedule: Q#A X014 (ip), vehicle: saline) was 66 % of control, the T/C (dose: 12.5 mg/kg/injection, schedule: Q#A X014 (ip), vehicle: saline) was 65 % of control and the T/C (dose: 25.0 mg/kg/injection, schedule: Q#A X014 (ip), vehicle: saline) was 86 % of control.

With `O=C1CN(/N=C\c2ccc([N+](=O)[O-])o2)C(=O)N1` the T/C (dose: 6.25 mg/kg/injection, schedule: Q#A X014 (ip), vehicle: carboxymethylcellulose (CMC)) was 91 % of control, the T/C (dose: 12.5 mg/kg/injection, schedule: Q#A X014 (ip), vehicle: carboxymethylcellulose (CMC)) was 94 % of control and the T/C (dose: 15.5 mg/kg/injection, schedule: Q01DX007 (ip), vehicle: carboxymethylcellulose (CMC)) was 106 % of control. For the same molecule, the T/C (dose: 21.0 mg/kg/injection, schedule: Q01DX007 (ip), vehicle: carboxymethylcellulose (CMC)) was 92 % of control, the T/C (dose: 25.0 mg/kg/injection, schedule: Q#A X014 (ip), vehicle: carboxymethylcellulose (CMC)) was 97 % of control and the T/C (dose: 42.0 mg/kg/injection, schedule: Q01DX007 (ip), vehicle: carboxymethylcellulose (CMC)) was 88 % of control. For the same molecule, the T/C (dose: 50.0 mg/kg/injection, schedule: Q#A X014 (ip), vehicle: carboxymethylcellulose (CMC)) was 27 % of control and the T/C (dose: 84.0 mg/kg/injection, schedule: Q01DX007 (ip), vehicle: carboxymethylcellulose (CMC)) was 103 % of control.

For `CC(=O)Nc1c(Cl)c(Cl)c2c(c1Cl)Cc1cc(F)ccc1-2`, the T/C (dose: 62.5 mg/kg/injection, schedule: Q01DX007 (ip), vehicle: saline) was 78 % of control, the T/C (dose: 111.0 mg/kg/injection, schedule: Q01DX007 (ip), vehicle: other) was 24 % of control and the T/C (dose: 111.0 mg/kg/injection, schedule: Q#A X014 (ip), vehicle: saline) was 31 % of control and 34 % of control. The T/C (dose: 125.0 mg/kg/injection, schedule: Q01DX007 (ip), vehicle: saline) was 81 % of control, the T/C (dose: 166.5 mg/kg/injection, schedule: Q#A X014 (ip), vehicle: saline) was 28 % of control and 31 % of control and the T/C (dose: 250.0 mg/kg/injection, schedule: Q#A X014 (ip), vehicle: saline) was 18 % of control and 35 % of control. The T/C [6] was 36 % of control, the T/C (dose: 375.0 mg/kg/injection, schedule: Q#A X014 (ip), vehicle: saline) was 21 % of control and the T/C [7] was 39 % of control. For the same molecule, the T/C [8] was 32 % of control.

`O=C(CCCl)N1CCN(C(=O)CCCl)CC1` was tested, and the T/C (dose: 110.0 mg/kg/injection, schedule: Q#A X014 (ip), vehicle: methylcellulose (MC)) was 66 % of control and the T/C (dose: 167.5 mg/kg/injection, schedule: Q#A X014 (ip), vehicle: methylcellulose (MC)) was 54 % of control.

For `O=c1[nH]c(Cl)ncc1F`, the T/C (dose: 22.0 mg/kg/injection, schedule: Q01DX007 (ip), vehicle: saline) was 36 % of control, the T/C (dose: 33.0 mg/kg/injection, schedule: Q01DX007 (ip), vehicle: saline) was 46 % of control and the T/C (dose: 50.0 mg/kg/injection, schedule: Q01DX007 (ip), vehicle: saline) was 29 % of control. The T/C (dose: 75.0 mg/kg/injection, schedule: Q01DX007 (ip), vehicle: saline) was 5 % of control.

For `CC(=O)NNC(=O)c1ccccn1`, the T/C (dose: 37.5 mg/kg/injection, schedule: Q01DX007 (ip), vehicle: water) was 112 % of control, the T/C (dose: 75.0 mg/kg/injection, schedule: Q01DX007 (ip), vehicle: water) was 104 % of control and the T/C (dose: 100.0 mg/kg/injection, schedule: Q01DX007 (ip), vehicle: water) was 89 % of control. For the same molecule, the T/C (dose: 200.0 mg/kg/injection, schedule: Q01DX007 (ip), vehicle: water) was 98 % of control.

For `C=C(C)C(=O)O[C@H]1CC2=C[C@@H](C[C@@]3(C)O[C@@H]3[C@H]3OC(=O)C(=C)[C@@H]31)OC2=O`, the T/C (dose: 2.5 mg/kg/injection, schedule: Q01DX007 (ip), vehicle: saline) was 105 % of control, the T/C (dose: 5.0 mg/kg/injection, schedule: Q01DX007 (ip), vehicle: saline) was 106 % of control and the T/C (dose: 10.0 mg/kg/injection, schedule: Q01DX007 (ip), vehicle: saline) was 100 % of control.

For `COc1ccc2c(c1)CC[C@@H]1[C@@H]2CC[C@]2(C)C=CC[C@@H]12`, the T/C (dose: 2.5 mg/kg/injection, schedule: Q01DX007 (sc), vehicle: steriod suspending solution) was 104 % of control, the T/C [5] was 91 % of control and the T/C (dose: 10.0 mg/kg/injection, schedule: Q01DX007 (sc), vehicle: steriod suspending solution) was 75 % of control.

With `O=C(Nc1ccc(C2=NCCCN2)cc1)c1ccc(C(=O)Nc2ccc(C3=NCCCN3)cc2)cc1` the T/C (dose: 0.2 mg/kg/injection, schedule: Q01DX007 (ip), vehicle: water) was 83 % of control, the T/C (dose: 0.4 mg/kg/injection, schedule: Q01DX007 (ip), vehicle: water) was 106 % of control and the T/C (dose: 0.8 mg/kg/injection, schedule: Q01DX007 (ip), vehicle: water) was 88 % of control. The T/C [3] was 80 % of control, the T/C (dose: 1.6 mg/kg/injection, schedule: Q01DX007 (ip), vehicle: water) was 90 % of control and the T/C [2] was 93 % of control. For the same molecule, the T/C [4] was 104 % of control, the T/C (dose: 16.0 mg/kg/injection, schedule: Q01DX007 (ip), vehicle: carboxymethylcellulose (CMC)) was 25 % of control and the T/C (dose: 32.0 mg/kg/injection, schedule: Q01DX007 (ip), vehicle: carboxymethylcellulose (CMC)) was 14 % of control.

With `Clc1ccc2c(c1)C(Br)c1cc(Cl)cc(Cl)c1-2` (stereo not drawn) the T/C (dose: 222.0 mg/kg/injection, schedule: Q01DX007 (ip), vehicle: other) was 66 % of control, the T/C (dose: 222.0 mg/kg/injection, schedule: Q01DX007 (ip), vehicle: saline) was 67 % of control and the T/C [6] was 27 % of control. For the same molecule, the T/C (dose: 333.0 mg/kg/injection, schedule: Q01DX007 (ip), vehicle: saline) was 32 % of control, the T/C [7] was 30 % of control and the T/C [8] was 21 % of control.

From PubChem BioAssay AID342 (DTP/NCI, 2004)
